Experimental data taken from patent publication US8129349B2, “Treatment of disease by inducing cell apoptosis” (The Regents of the University of California, priority 2000, dated 2012).

Legend:
[1] = tested on: C/EBPβ+/+ stellate cells; test: Annexin-V-PE assay of stellate cells treated with lactacystin; format: cell-based, mouse; conditions: lactacystin 0-30 μM, 6 hours after treatment began
Experimental: (§1) FIG. 7 provides data showing that phosphorylation of rat C/EBPβ on Ser^105 prevents stellate cell apoptosis. Panel A provides results for mouse stellate cells transfected as described herein (See, FIG. 2), with mutant p90RSK or treated with lactacystin (10 μM) (closed bars), and co-transfected with CMV-rC/EBPβ-Asp^105 (1 μg each) (open bars) as indicated. Annexin-V-PE binding was determined as described for FIG. 2 (P<0.05 for rC/EBPβ-Asp^105). Panel B provides results of an annexin-V-PE assay for stellate cells from C/EBPβ^+/+ (closed circles) and rC/EBPβ-Asp^105 transgenic (open circles) mice treated with lactacystin (0-30 μM). The annexin-V-PE assay was performed 6 hours after treatment began (P<0.05 for rC/EBPβ-Asp^105 transgenic mice for 5-25 μM lactacystin). Panel C provides results for rC/EBPβ-HA constructs (0.3 μg) transfected into rat stellate cells. The expressed peptides were immunoprecipitated with anti-HA antibodies. Using a specific antibody, rCEBPβ-PSer^105 was detected only in cells that expressed wild-type rC/EBPβ. […] Reciprocal immunoprecipitations confirmed these associations. […] Enzyme activity was measured using a colorimetric substrate as described in the Examples. […]

[2] = tested on: hepatic stellate cells; test: Apoptosis of stellate cells on collagen type I incubated with cell permeant peptides; format: cell-based, mouse; conditions: collagen type I matrix, tetrapeptides 10 μM, Chariot reagent, 4 h
Experimental: FIG. 5 provides results showing the direct association of C/EBPβ-Glu^217 with procaspases 1 and 8. […] Enzyme activity was measured in the absence (control) or presence of C/EBPβ peptides (200 μM) for 2 h, using a procaspases 1 (1U) (not shown) and 8 (0.2 μg) activity assay. Values are presented as the mean±one half the range of duplicates. Panel C provides results for cells cultured on a collagen type I matrix and incubated with the indicated cell permeant, purified synthetic N-acetyl, C-aldehyde C/EBPβ tetra-peptides (10 μM) or with recombinant C/EBPβ-HA peptides as indicated, together with the Chariot reagent (Active Motif) for 4 h. Control cells were incubated without peptides (P<0.05 for all peptides containing Ala^217). […]
Fluorescent labels were observed using a triple-channel fluorescence microscope. […] The number of annexin V (+) cells was determined by in vivo microscopy as known in the art (See, Rudel and Bokoch, supra) among all cells or those expressing the GFP indicator protein either co-transfected with C/EBPβ proteins, or alone. […] At least 1000 cells were analyzed per experimental point, including at least 100 cells expressing the transfected DNA (Buck and Chojkier, EMBO J., 15:1753-1765 (1996); Buck et al., (1994), supra; and Buck et al., (1999), supra). […] Nuclear morphology was analyzed by staining cells with Hoechst 33342 (Molecular Probes). […]

[3] = tested on: stellate cells from C/EBPβ−/− mice; test: Rescue from apoptosis of stellate cells from C/EBPβ−/− mice by cell permeant tetrapeptides; format: cell-based, mouse; conditions: C/EBPβ−/− cells activated by collagen type I, tetrapeptides 10 μM, Chariot reagent, 4 hours
[4] = target: T1, caspase 8 (Homo sapiens, UniProt Q14790); test: In vitro self-activation of recombinant caspase 8; format: biochemical; conditions: peptides 200 μM, 2 h, procaspase 8 (0.2 μg), colorimetric substrate
T1 construct: 21 amino acid linker (vector-derived) (N); purchased Alexis Biochemicals 201-041-C005
Experimental: (§2) FIG. 5 provides results showing the direct association of C/EBPβ-Glu^217 with procaspases 1 and 8. […] Enzyme activity was measured in the absence (control) or presence of C/EBPβ peptides (200 μM) for 2 h, using a procaspases 1 (1U) (not shown) and 8 (0.2 μg) activity assay. Values are presented as the mean±one half the range of duplicates. Panel C provides results for cells cultured on a collagen type I matrix and incubated with the indicated cell permeant, purified synthetic N-acetyl, C-aldehyde C/EBPβ tetra-peptides (10 μM) or with recombinant C/EBPβ-HA peptides as indicated, together with the Chariot reagent (Active Motif) for 4 h. Control cells were incubated without peptides (P<0.05 for all peptides containing Ala^217).
as §1
(§3) Purified recombinant C/EBPβ peptides, expressed as known in the art (See, Descombes et al., supra; and Buck et al. (1994), supra), and purified synthetic N-acetyl, C-aldehyde tetrapeptides (200 μM) (American Peptide Company) were assayed for their ability to inhibit the activity of purified human recombinant caspases 1 (catalogue # 201-056) and 8 (catalogue # 201-041-C005) (Alexis Biochemicals). […] Caspase activity was determined by the release of the p-nitroaniline colorimetric (Alexis Biochemicals) substrate for caspase 1 (catalogue # 260-026) or 8 (catalogue # 260-045) within the linear part of the kinetic assay (Thornberry et al. (1997), supra; Stennicke and Salvesen, supra). […]

[5] = target: T2, caspase 1 (Homo sapiens, UniProt P29466); test: In vitro self-activation of recombinant caspase 1; format: biochemical; conditions: peptides 200 μM, 2 h, procaspase 1 (1U)
T2 construct: purchased Alexis Biochemicals 201-056
T2 sequence (P29466 120-404): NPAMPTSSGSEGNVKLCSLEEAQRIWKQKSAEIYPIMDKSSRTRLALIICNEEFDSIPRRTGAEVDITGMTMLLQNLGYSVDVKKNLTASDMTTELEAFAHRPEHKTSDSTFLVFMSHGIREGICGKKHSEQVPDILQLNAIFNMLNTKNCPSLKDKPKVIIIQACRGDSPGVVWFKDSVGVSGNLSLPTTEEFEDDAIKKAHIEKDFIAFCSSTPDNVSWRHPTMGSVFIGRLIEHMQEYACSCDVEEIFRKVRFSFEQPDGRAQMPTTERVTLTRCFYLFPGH
Experimental: as §2
as §3, with “Biochemicals). The sequence of caspase 8 includes Ser217 through Asp479 cloned into an expression vector containing a 21 amino acid linker at the N-terminus. Thus, the prodomain (first 220 amino acids) is essentially missing.” for “Biochemicals).”
To delineate the role of C/EBPβ on the activation of procaspases 1 and 8, the self-activation of recombinant procaspases 1 and 8 was induced in vitro (Wilson et al., supra; Margolin et al., supra; and Earnshaw et al., supra), and the effect of purified recombinant C/EBPβ peptides, produced as described previously (Descombes et al., supra; and Buck et al., (1994), supra) on this process was determined. […]

[6] = target: procaspase 8 (Homo sapiens, UniProt Q14790); conditions: cited from earlier work
[7] = tested on: C/EBPβ-Ala^217 stellate cells; test: Apoptosis of stellate cells from C/EBPβ-Ala^217 transgenic mice, Hoechst 33342 nuclear staining; format: cell-based, mouse; conditions: collagen type I; IETD or transfection 1 μg
Experimental: FIG. 2 provides results showing increased apoptosis in hepatic stellate cells from C/EBPβ^−/− and C/EBPβ-Ala^217 transgenic mice. […] Six hours after cultivation, an annexin-V-PE binding assay was performed (P<0.05 for C/EBPβ^−/− and C/EBPβ-Ala^217). […] Apoptotic cells are indicated with arrowheads.
Fluorescent labels were observed using a triple-channel fluorescence microscope. The fluorochromes utilized were FITC and Texas red (Molecular Probes). The number of annexin V (+) cells was determined by in vivo microscopy as known in the art (See, Rudel and Bokoch, supra) among all cells or those expressing the GFP indicator protein either co-transfected with C/EBPβ proteins, or alone. These values are reported herein as a percentage of annexin V (+) for cells expressing the transfected DNA. At least 1000 cells were analyzed per experimental point, including at least 100 cells expressing the transfected DNA (Buck and Chojkier, EMBO J., 15:1753-1765 (1996); Buck et al., (1994), supra; and Buck et al., (1999), supra). […] Nuclear morphology was analyzed by staining cells with Hoechst 33342 (Molecular Probes). […]

T1 sequence (Q14790 217-479): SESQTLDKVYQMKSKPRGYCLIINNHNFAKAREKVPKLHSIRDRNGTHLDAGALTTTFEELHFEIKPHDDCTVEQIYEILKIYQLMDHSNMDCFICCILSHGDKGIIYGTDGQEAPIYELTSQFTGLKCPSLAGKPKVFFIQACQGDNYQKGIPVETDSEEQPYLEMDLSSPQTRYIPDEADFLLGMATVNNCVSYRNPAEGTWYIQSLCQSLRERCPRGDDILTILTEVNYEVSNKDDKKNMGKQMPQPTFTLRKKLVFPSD
procaspase 8, sequence (Q14790 whole entry): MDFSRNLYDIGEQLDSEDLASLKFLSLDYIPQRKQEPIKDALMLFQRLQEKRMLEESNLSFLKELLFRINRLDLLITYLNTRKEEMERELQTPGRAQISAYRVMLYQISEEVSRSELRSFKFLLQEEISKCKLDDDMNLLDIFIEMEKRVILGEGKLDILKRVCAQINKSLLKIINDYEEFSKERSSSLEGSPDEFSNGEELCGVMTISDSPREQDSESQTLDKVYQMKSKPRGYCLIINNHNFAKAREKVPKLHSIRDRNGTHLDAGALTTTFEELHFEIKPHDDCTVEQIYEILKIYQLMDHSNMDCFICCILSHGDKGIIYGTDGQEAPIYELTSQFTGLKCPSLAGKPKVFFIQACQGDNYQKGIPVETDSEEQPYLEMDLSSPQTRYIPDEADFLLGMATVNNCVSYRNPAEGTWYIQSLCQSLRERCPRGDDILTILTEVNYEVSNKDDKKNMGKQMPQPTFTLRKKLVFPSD

CC(=O)N[C@@H](CSC(=O)[C@]1([C@@H](O)C(C)C)NC(=O)[C@H](C)[C@@H]1O)C(=O)O [Lactacystin, lactacystin]
Stellate cell apoptosis [1]: significant and rapid increase

Ac-KA^217VD-CHO
Induction of apoptosis of stellate cells [2]: induced apoptosis

Ac-KE^217VD-CHO (Ac-KEVD-aldehyde; SMILES CC(=O)N[C@@H](CCCCN)C(=O)N[C@@H](CCC(=O)O)C(=O)N[C@H](C(=O)N[C@H](C=O)CC(=O)O)C(C)C) [cell permeant synthetic N-acetyl, C-aldehyde tetrapeptide, phosphorylation mimic domain of C/EBPβ]
Rescue of stellate cells from apoptosis [3]: rescued these cells from apoptosis | Inhibition of in vitro self-activation of caspase 8 [4]: inhibited the in vitro self-activation | Inhibition of in vitro self-activation of caspase 1 [5]: inhibited the in vitro self-activation

Ac-KKPD^105-CHO (Ac-KKPD-aldehyde; SMILES CC(=O)N[C@@H](CCCCN)C(=O)N[C@@H](CCCCN)C(=O)N1CCC[C@H]1C(=O)N[C@H](C=O)CC(=O)O) [cell permeant synthetic N-acetyl, C-aldehyde tetrapeptide, phosphorylation mimic domain of rC/EBPβ]
Rescue of stellate cells from apoptosis [3]: rescued these cells from apoptosis | Inhibition of in vitro self-activation of caspase 8 [4]: inhibited the in vitro self-activation

DEVD-CHO
Ki [6]: 12 nM

IETD [reference compound]
Block of apoptosis of C/EBPβ-Ala^217 stellate cells [7]: blocked
